Conditions: 101.35 kPa, Liquid; for viscosity: Falling or rolling sphere viscometry; for mass density: Vibrating tube method

CCO [ethanol]
Conditions	mass density [kg/m3]	viscosity [mPa·s]
293.15 K	789.5	1.194
298.15 K	785.2	1.085
303.15 K	780.8	0.9897
308.15 K	776.5	0.9036
313.15 K	772.1	0.8277
318.15 K	767.7	0.759
323.15 K	763.2	0.6978
328.15 K	758.7	0.6434
333.15 K	754.1	0.5942
